{"source": "patent US8193156B1", "about": "“Dipeptides incorporating selenoamino acids with enhanced bioavailability—synthesis, pharmaceutical and cosmeceutical applications thereof” (Sami Labs Ltd, priority 2006, dated 2012)", "key": {"[1]": {"assay": "Aqueous solubility measurements", "format": "physicochemical", "conditions": "for Aqueous solubility: in water", "excerpt": "Aqueous solubility measurements were done on L-Se-methylselenocysteine and γ-L-glutamyl-L-Se-methylselenocysteine; The solubility of L-Se-methylselenocysteine was ca. 10% with dissolution occurring in two hours in water."}}, "data": [{"compound": "C[Se]CC[C@H](NC(=O)CC[C@H](N)C(=O)O)C(=O)O", "values": [{"measurement": "melting point", "result": "192 to 194", "unit": "°C"}]}, {"compound": "C[Se]C[C@H](N)C(=O)O", "note": "[L-Se-methylselenocysteine, reference compound]", "values": [{"measurement": "Time for dissolution in water", "setting": "[1]", "result": "two hours"}, {"measurement": "Aqueous solubility", "setting": "[1]", "result": "ca. 10%"}]}, {"compound": "C[Se]C[C@H](NC(=O)CC[C@H](N)C(=O)O)C(=O)O", "note": "[γ-L-glutamyl-L-Se-methylselenocysteine, γ-L-glutamyl-Se-methyl-L-selenocysteine]", "values": [{"measurement": "Time for dissolution in water", "setting": "[1]", "result": "thirty minutes"}, {"measurement": "Aqueous solubility", "setting": "[1]", "result": "ca. 25%"}, {"measurement": "melting point", "result": "159 to 161", "unit": "°C"}]}]}
